From patent publication US10111853B2, “Compounds, compositions, and methods for the treatment of cancers” (PLACON THERAPEUTICS, INC., priority 2012, dated 2018)

Tests used:
[1] = Mouse PK/PD study, tumor platinum levels by ICP-MS; design: species or system nude mice; conditions: in vivo, iv, 4 mg/kg
Method: To examine the ability of compounds to accumulate in tumors, a murine cancer model was used. Animals were inoculated with 5×10^5 H460 […] lung cancer cells via subcutaneous injection to the flank. Tumors were allowed to reach an approximate volume of ˜500 mm^3. Animals were then randomized into treatment groups of 3 animals per time point and were dosed at 4 mg/kg. The 24 hour time point was used as a benchmark across compounds.
Tumors were excised from animals and dissolved in fuming nitric acid (60% w/w) by adding four parts nitric acid to 1 part tumor w/w and heating overnight at 60 degrees Centigrade. The resulting digest was diluted 1:10 in ICP-MS analysis buffer (1% nitric acid, 2% Triton x-100), and directly introduced into the ICP-MS unit by peristaltic pump. The end dilution factor for the samples as introduced to the ICP-MS was 50×.

[2] = Drug load (gravimetric, GF-AAS) and encapsulation efficiency of nanoparticles; assay type: physicochemical; conditions: for Max DL, %: maximum drug load; for Max DL, % / Max EE, %: according to Example 11; for Max EE, %: maximum encapsulation
Method: The polymer composition was varied by the ratio of the PLA or PLGA polymer to PLA-PEG or PLGA-PEG copolymer, as well as the PLA molecular weight (25-109 kDa). […] The oil phase was then slowly added to the continuously stirred aqueous phase containing an emulsifier (such as polysorbate 80 a.k.a. Tween® 80) at 10/90% or 20/80% v/v oil/water ratio and a coarse emulsion was prepared using a rotor-stator homogenizer or an ultrasound bath. The course emulsion was then processed through a high-pressure homogenizer (operated at 5,000 or 10,000 psi) for N=2 or 4 passes to form a nanoemulsion. In process (2) the polymers and the drug were dissolved in an organic solvent miscible with water (such as acetone) and added slowly to a continuously stirred aqueous phase with or without a stabilizer (such as polysorbate 80). In both processes (1) and (2) the nanoemulsion formed was quenched (by 5- or 10-fold dilution with cold (0-5° C.) or room temperature deionized water) to remove the major portion of the organic solvent resulting in hardening of the emulsion droplets and formation of a nanoparticle suspension, which was then concentrated and purified with deionized water containing or not surfactants using tangential flow filtration (500 kDa MWCO, mPES membranes).
The actual drug load was determined gravimetrically by transferring 1 mL of the nanoparticle suspension to a 4 mL glass vial and drying under vacuum on a Rotavapor® to determine the amount of total remaining solids. The drug content was then determined by reconstituting the dried sample in an organic solvent (such as N′N′-dimethylformamide) and measuring the total amount of platinum using graphite furnace atomic adsorption spectroscopy (GF-AAS). Encapsulation efficiency was calculated as the ratio between the actual and the theoretical drug load. The yield was determined based on the ratio between the encapsulated and used compound amounts. In-vitro release was studied by incubating the nanoparticle suspension in phosphate buffered saline (PBS) containing a solubilizer such as 1% hydroxypropyl beta cyclodextrin for 24 h at 37° C. mixed continuously in a water shaking bath. Samples were taken at different time points and spun with an ultracentrifuge at 1,000,000×g to separate the nanoparticles from the dissolution medium. The supernatant was then analyzed using GF-AAS or HPLC to determine the active content as a function of time.

| Structure (SMILES) | platinum levels in the tumor, nanoparticle suspension versus free compound [1] | Max DL, % [2] | Max EE, % [2] | encapsulation efficiency (in words) ([2]; statement on Table 4) | maximum drug loading (in words) ([2]; statement on Table 4) |
| --- | --- | --- | --- | --- | --- |
| CC(C)(C)CC(C)(C)NC(=O)[O][Pt]([NH2])([NH2])([Cl])([Cl])[O]C(=O)NC(C)(C)CC(C)(C)C [Compound 29] | higher platinum levels in the tumors when the corresponding compound was dosed as a nanoparticle suspension than as a free compound | 5.9% | 59% | increased encapsulation efficiency | increased maximum drug loading |
| CCCCCC(=O)[O][Pt]([NH2])([NH2])([Cl])([Cl])[O]C(=O)CCCCC [reference compound] | – | 0.55% | 2.8% | – | – |
